Test results published in PubChem BioAssay (NCI).
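Interpolation was linear, between the two tested concentrations surrounding the appropriate level; five concentrations were tested over 48 hours in 96-well plates. The concentration for full growth arrest is given as TGI.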

What was measured:
Assay in all cases: NCI tumour cell line growth inhibition, 48 h
HL-60(TB) leukemia = test system: HL-60(TB) leukemia
HOP-92 NSCLC = test system: HOP-92 NSCLC
MOLT-4 leukemia = test system: MOLT-4 leukemia
SF-295 CNS = test system: SF-295 CNS
RPMI-8226 leukemia = test system: RPMI-8226 leukemia
M14 melanoma = test system: M14 melanoma
MALME-3M melanoma = test system: MALME-3M melanoma
SW-620 colon = test system: SW-620 colon
SK-OV-3 ovarian = test system: SK-OV-3 ovarian
NCI/ADR-RES ovarian = test system: NCI/ADR-RES ovarian

`CCOc1ccccc1NC(=O)CC1C(=O)Nc2ccccc2S1=O` (stereo not given) showed a TGI (HL-60(TB) leukemia) greater than 100 µM, a TGI (HOP-92 NSCLC) greater than 100 µM and a TGI (MOLT-4 leukemia) of 39.5 µM. The TGI (SF-295 CNS) was greater than 100 µM, the TGI (RPMI-8226 leukemia) was 46.1 µM and the TGI (M14 melanoma) was greater than 100 µM. For the same compound, the TGI (MALME-3M melanoma) was greater than 100 µM and the TGI (SW-620 colon) was greater than 100 µM.

With `CC1CC(C2=CC=CCS2)=Nc2ccccc2S1` (stereo not given) the TGI (HL-60(TB) leukemia) was greater than 100 µM, the TGI (HOP-92 NSCLC) was greater than 100 µM and the TGI (MOLT-4 leukemia) was greater than 100 µM. The TGI (SF-295 CNS) was greater than 100 µM, the TGI (RPMI-8226 leukemia) was greater than 100 µM and the TGI (M14 melanoma) was greater than 100 µM. For the same compound, the TGI (SK-OV-3 ovarian) was greater than 100 µM, the TGI (MALME-3M melanoma) was greater than 100 µM and the TGI (SW-620 colon) was greater than 100 µM.

With `CN1N=CSC12C(=O)N(c1ccc(Cl)cc1)C(=O)N2c1ccc(Cl)cc1` (stereo not given) the TGI (HL-60(TB) leukemia) was 5.09 µM, the TGI (HOP-92 NSCLC) was 8.92 µM and the TGI (MOLT-4 leukemia) was 12.3 µM. It also gave a TGI (SF-295 CNS) of 9.16 µM, a TGI (RPMI-8226 leukemia) of 7.21 µM and a TGI (M14 melanoma) greater than 100 µM. For the same compound, the TGI (SK-OV-3 ovarian) was 32 µM, the TGI (MALME-3M melanoma) was greater than 100 µM and the TGI (SW-620 colon) was greater than 100 µM.

`CC[C@]1(O)CC(OC2CC(N(C)C)C(O)C(C)O2)c2c(cc3c(c2O)C(=O)c2c(O)cccc2C3=O)[C@@H]1C(=O)OC` (stereo not given in full) was tested, and the TGI (HOP-92 NSCLC) was 1.51 µM, the TGI (MOLT-4 leukemia) was 0.677 µM and the TGI (SF-295 CNS) was 3.31 µM. The TGI (M14 melanoma) was 2.07 µM, the TGI (SK-OV-3 ovarian) was 2.18 µM and the TGI (MALME-3M melanoma) was 1.01 µM. The TGI (NCI/ADR-RES ovarian) was 3.95 µM and the TGI (SW-620 colon) was 3.95 µM.

`COc1ccccc1/C=C(\C#N)c1ccccc1` was tested, and the TGI (HOP-92 NSCLC) was greater than 100 µM, the TGI (MOLT-4 leukemia) was 97.3 µM and the TGI (SF-295 CNS) was greater than 100 µM. For the same compound, the TGI (RPMI-8226 leukemia) was greater than 100 µM, the TGI (M14 melanoma) was 99.4 µM and the TGI (SK-OV-3 ovarian) was 84.3 µM. For the same compound, the TGI (SW-620 colon) was greater than 100 µM.

`O=C(Nc1ccccc1-c1n[nH]c(=S)[nH]c1=O)C(F)(F)F` gave a TGI (HOP-92 NSCLC) greater than 100 µM, a TGI (MOLT-4 leukemia) greater than 100 µM and a TGI (SF-295 CNS) greater than 100 µM. For the same compound, the TGI (M14 melanoma) was greater than 100 µM, the TGI (SK-OV-3 ovarian) was greater than 100 µM and the TGI (MALME-3M melanoma) was greater than 100 µM. The TGI (SW-620 colon) was greater than 100 µM.

Work on `N#Cc1ccccc1NC(=O)/C(=N\N)C(C(=O)c1ccncc1)C1OC(=O)c2ccccc21` (stereo not given) yielded a TGI (HL-60(TB) leukemia) greater than 100 µM, a TGI (HOP-92 NSCLC) greater than 100 µM and a TGI (MOLT-4 leukemia) greater than 100 µM. For the same compound, the TGI (SF-295 CNS) was greater than 100 µM, the TGI (RPMI-8226 leukemia) was greater than 100 µM and the TGI (M14 melanoma) was greater than 100 µM. For the same compound, the TGI (SK-OV-3 ovarian) was greater than 100 µM, the TGI (MALME-3M melanoma) was greater than 100 µM and the TGI (SW-620 colon) was greater than 100 µM.

Work on `O=C(Nc1ccc(Cl)cc1Cl)C1C(=O)N(c2ccc(Cl)cc2Cl)C(=O)/C1=N\Nc1ccc([N+](=O)[O-])cc1[N+](=O)[O-]` (stereo not given) yielded a TGI (HL-60(TB) leukemia) greater than 100 µM, a TGI (HOP-92 NSCLC) of 62.3 µM and a TGI (MOLT-4 leukemia) of 74.8 µM. It also gave a TGI (SF-295 CNS) greater than 100 µM, a TGI (RPMI-8226 leukemia) of 69.5 µM and a TGI (M14 melanoma) greater than 100 µM. For the same compound, the TGI (SK-OV-3 ovarian) was greater than 100 µM, the TGI (MALME-3M melanoma) was greater than 100 µM and the TGI (SW-620 colon) was greater than 100 µM.

`CC(NS(=O)(=O)c1ccc([N+](=O)[O-])cc1)C(=O)O` (stereo not given) gave a TGI (HL-60(TB) leukemia) greater than 100 µM, a TGI (HOP-92 NSCLC) greater than 100 µM and a TGI (MOLT-4 leukemia) greater than 100 µM. For the same compound, the TGI (SF-295 CNS) was greater than 100 µM, the TGI (RPMI-8226 leukemia) was greater than 100 µM and the TGI (M14 melanoma) was greater than 100 µM. It also gave a TGI (SK-OV-3 ovarian) greater than 100 µM, a TGI (MALME-3M melanoma) greater than 100 µM and a TGI (SW-620 colon) greater than 100 µM.

With `COC(=O)C1=C(c2ccc(OC)c(OC)c2)OC(c2ccc(OC)c(OC)c2)C1` (stereo not given) the TGI (HL-60(TB) leukemia) was 44.6 µM, the TGI (HOP-92 NSCLC) was greater than 100 µM and the TGI (MOLT-4 leukemia) was 47.5 µM. The TGI (SF-295 CNS) was greater than 100 µM, the TGI (RPMI-8226 leukemia) was greater than 100 µM and the TGI (M14 melanoma) was greater than 100 µM. It also gave a TGI (SK-OV-3 ovarian) of 96.7 µM, a TGI (MALME-3M melanoma) of 69.3 µM and a TGI (SW-620 colon) greater than 100 µM.

`COc1cc(/C=C/c2ccncc2)cc(OC)c1OC` gave a TGI (HL-60(TB) leukemia) of 97.8 µM, a TGI (HOP-92 NSCLC) greater than 100 µM and a TGI (MOLT-4 leukemia) greater than 100 µM. The TGI (SF-295 CNS) was greater than 100 µM, the TGI (RPMI-8226 leukemia) was greater than 100 µM and the TGI (M14 melanoma) was greater than 100 µM. The TGI (MALME-3M melanoma) was greater than 100 µM and the TGI (SW-620 colon) was greater than 100 µM.

Compound `CC(C)(C)NNC(=O)/C(=C/c1ccc([N+](=O)[O-])cc1)NC(=O)c1ccccc1` has a TGI (HL-60(TB) leukemia) greater than 100 µM, a TGI (HOP-92 NSCLC) greater than 100 µM and a TGI (MOLT-4 leukemia) greater than 100 µM. For the same compound, the TGI (SF-295 CNS) was greater than 100 µM, the TGI (RPMI-8226 leukemia) was greater than 100 µM and the TGI (M14 melanoma) was greater than 100 µM. It also gave a TGI (SK-OV-3 ovarian) greater than 100 µM and a TGI (MALME-3M melanoma) greater than 100 µM.

Compound `C/C(CN1C(=O)c2ccccc2C1=O)=N\NS(=O)(=O)c1ccc(C)cc1` has a TGI (HL-60(TB) leukemia) greater than 100 µM, a TGI (MOLT-4 leukemia) greater than 100 µM and a TGI (SF-295 CNS) greater than 100 µM. It also gave a TGI (RPMI-8226 leukemia) greater than 100 µM, a TGI (M14 melanoma) greater than 100 µM and a TGI (SK-OV-3 ovarian) greater than 100 µM. The TGI (MALME-3M melanoma) was greater than 100 µM and the TGI (SW-620 colon) was greater than 100 µM.

`C[N+](C)(C)CC1CCCC/C1=N\OC(=O)c1ccccc1` (stereo not given) gave a TGI (HOP-92 NSCLC) greater than 100 µM, a TGI (MOLT-4 leukemia) greater than 100 µM and a TGI (SF-295 CNS) greater than 100 µM. The TGI (RPMI-8226 leukemia) was greater than 100 µM, the TGI (M14 melanoma) was greater than 100 µM and the TGI (SK-OV-3 ovarian) was greater than 100 µM. For the same compound, the TGI (MALME-3M melanoma) was greater than 100 µM and the TGI (SW-620 colon) was greater than 100 µM.

Compound `CN1C(=O)CC(c2cccc(C3CC(=O)N(C)C3=O)n2)C1=O` (stereo not given) has a TGI (HL-60(TB) leukemia) greater than 100 µM, a TGI (HOP-92 NSCLC) greater than 100 µM and a TGI (MOLT-4 leukemia) greater than 100 µM. It also gave a TGI (SF-295 CNS) greater than 100 µM, a TGI (M14 melanoma) greater than 100 µM and a TGI (SK-OV-3 ovarian) greater than 100 µM. It also gave a TGI (MALME-3M melanoma) greater than 100 µM and a TGI (SW-620 colon) greater than 100 µM.

`O=C(Nc1c(O)[nH]c(=S)[nH]c1=O)c1ccccc1F` gave a TGI (HL-60(TB) leukemia) greater than 100 µM, a TGI (HOP-92 NSCLC) greater than 100 µM and a TGI (MOLT-4 leukemia) greater than 100 µM. For the same compound, the TGI (SF-295 CNS) was greater than 100 µM, the TGI (RPMI-8226 leukemia) was greater than 100 µM and the TGI (M14 melanoma) was greater than 100 µM. For the same compound, the TGI (SK-OV-3 ovarian) was greater than 100 µM, the TGI (MALME-3M melanoma) was greater than 100 µM and the TGI (SW-620 colon) was greater than 100 µM.

`NC1=NC(=O)/C(=C/c2ccccc2[N+](=O)[O-])C(N)=N1` showed a TGI (HL-60(TB) leukemia) greater than 100 µM, a TGI (HOP-92 NSCLC) greater than 100 µM and a TGI (MOLT-4 leukemia) greater than 100 µM. It also gave a TGI (SF-295 CNS) greater than 100 µM, a TGI (RPMI-8226 leukemia) greater than 100 µM and a TGI (M14 melanoma) greater than 100 µM. For the same compound, the TGI (SK-OV-3 ovarian) was greater than 100 µM, the TGI (MALME-3M melanoma) was greater than 100 µM and the TGI (SW-620 colon) was greater than 100 µM.

`CC1CC[C@]2(C(=O)O)CCC3(COC(=O)/C=C\c4ccc(O)cc4)C(=CCC4[C@@]5(C)CC[C@H](O)C(C)(C)C5CC[C@]43C)[C@@H]2[C@H]1C` (stereo not given in full) was tested, and the TGI (HL-60(TB) leukemia) was 72.8 µM, the TGI (MOLT-4 leukemia) was greater than 100 µM and the TGI (SF-295 CNS) was 31.7 µM. The TGI (RPMI-8226 leukemia) was greater than 100 µM, the TGI (M14 melanoma) was 37.7 µM and the TGI (SK-OV-3 ovarian) was 21.6 µM. For the same compound, the TGI (MALME-3M melanoma) was 87.9 µM and the TGI (SW-620 colon) was greater than 100 µM.
